# Results from patent publication US20180230166A1 (Merck Sharp & Dohme Corp., priority 2015, published 2018).
# What was measured:
# [1] = target: T1, endogenous CETP from serum (Homo sapiens, UniProt P11597); test: RTA assay in 95% human serum (95% RTA), CETP-catalyzed CE and TG transfer; type: biochemical; conditions: RTA assay in 95% human serum; read-out: IC50
# T1 construct: yielding a concentration of approximately 15 nM endogenous CETP in the assay; from tissue; host or cells: human serum (95% of the assay volume)
# T1 sequence (P11597 18-493): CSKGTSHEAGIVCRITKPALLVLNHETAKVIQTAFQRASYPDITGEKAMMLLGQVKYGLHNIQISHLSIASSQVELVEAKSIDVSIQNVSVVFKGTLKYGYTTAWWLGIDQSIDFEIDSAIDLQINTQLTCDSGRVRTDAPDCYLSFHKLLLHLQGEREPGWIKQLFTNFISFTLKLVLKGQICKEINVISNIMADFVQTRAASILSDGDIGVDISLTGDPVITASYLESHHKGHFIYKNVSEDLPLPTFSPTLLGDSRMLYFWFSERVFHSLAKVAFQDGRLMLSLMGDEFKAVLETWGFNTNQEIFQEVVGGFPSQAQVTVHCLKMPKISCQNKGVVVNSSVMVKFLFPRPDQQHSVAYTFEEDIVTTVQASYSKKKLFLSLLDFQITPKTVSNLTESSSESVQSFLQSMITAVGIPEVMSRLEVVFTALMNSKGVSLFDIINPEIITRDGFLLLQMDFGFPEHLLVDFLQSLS
# Protocol: Reagents and sources are: [3H] cholesteryl oleate (GE #TRK.886), [3H] Triolein (Perkin-Elmer NET-431), Butylated hydroxyl toluene (Aldrich, #D4740-4), DOPC (Sigma, #P6354), Sodium Bromide (Fisher scientific #S255-500), PEG 8000 (Fisher, #BP233-1), and human HDL (Intracel Corp #RP-036).
# Both assays measure the transfer of [3H] cholesteryl oleate or [3H] triolein from exogenous LDL to HDL.
# Radiolabeled donor particles are generated by first combining 100 μl of 200 μM butylated hydroxyl toluene in CHCl3, 216 μL of 21.57 mM DOPC in EtOH, and either 500 μCi [3H]-triolein (Perkin Elmer #NET-431) or 500 μCi [3H]-cholesteryl oleate (GE #TRK886) in a glass tube. Reagents are mixed, dried under nitrogen, and then resuspended in 2 mL of 50 mM Tris, 27 μM EDTA at pH 7.4. After a brief vortex, the solution is sonicated until clear and mixed with 20 mL of fresh human serum. The mixture is incubated overnight at 37° C. The [3H] labeled LDL substrate is separated at 1.063 g/ml density by sequential ultracentrifugal flotation in NaBr according to the method of Havel, Eder, et al., 1955, and Chapman, Goldstein, et al., 1981. Once isolated the particles are dialyzed 3× in CETP buffer (50 mM Tris, pH 7.4, 100 mM NaCl, 1 mM EDTA). Human HDL is purchased from Intracel and used as the acceptor particles.
# Transfer assays are performed in a 96-well v-bottom polypropylene plate. […] 1 μL of each test compound diluted in DMSO is added to 47 μL of assay cocktail per well and incubated at 37° C. for 1 hour. To initiate the transfer reaction, 2 μL radiolabeled LDL is added. After an additional 60 min of incubation at 37° C., the transfer action is terminated by precipitation of LDL with an equal volume of 20% W/V PEG 8000. The plates are centrifuged at 2000 rpm for 30 minutes at 4° C. A 40 μL aliquot of the HDL-containing supernatant is transferred to a Packard Optiplate™ with 200 μL of MicroScint™ 20. After mixing, plates are counted by liquid scintillation. Counts present in the supernatant for blanks (wells containing only HDL acceptor, CETP buffer and DMSO) are subtracted from those containing test compounds and used to correct for non-specific transfer.
# For the transfer assay using endogenous CETP from serum (95% RTA), the same procedure is used except that human serum is added such that a final concentration of serum of 95% of the total assay volume is achieved, yielding a concentration of approximately 15 nM endogenous CETP in the assay. This is then combined with HDL and CETP buffer and the reaction proceeds as above and is terminated as described.
# Comparison of the counts of samples with inhibitors to an uninhibited (DMSO only) positive control yield a percent inhibition. A plot of percent inhibition vs. log of inhibitor concentration, fit to a Sigmoidal 4 parameter equation is used to calculate IC50.
# Starting materials are commercially available or are made using known procedures or as shown below. The examples may be synthesized using the general schemes provided below. The data reported for the examples below were obtained using the RTA assay in 95% human serum. […] When compounds of Formula I are mentioned herein, such compounds include compounds defined generically by Formula I and also the specific examples disclosed herein.
# [2] = cited from earlier work
# [3] = Phase III outcomes trial, cited from earlier work
# [4] = torcetrapib and atorvastatin concomitantly, compared with atorvastatin alone; cited from earlier work
# [5] = patients on anacetrapib with baseline statin therapy, compared with patients treated with just a statin
smiles,measurement,setting,value
"COc1ncc(-c2ccc(C(=O)O)cc2C)cc1-c1ccc(C(F)(F)F)cc1[C@@H]1CC[C@H]2[C@@H](c3cc(F)cc(C(F)(F)F)c3)CC(=O)N12 [Example 19, 4-{5-[2-{(3S,7R,7aS)-7-[3-fluoro-5-(trifluoromethyl)phenyl]-5-oxohexahydro-1H-pyrrolizin-3-yl}-4-(trifluoromethyl)phenyl]-6-methoxypyridin-3-yl}-3-methylbenzoic acid]",IC50,[1],2.88 µM
COc1ccc(-c2ccc(C(=O)O)cc2C)cc1-c1ccc(C(F)(F)F)cc1[C@@H]1CC[C@H]2[C@@H](c3cc(F)cc(C(F)(F)F)c3)CC(=O)N12 [Example 20],IC50,[1],4.73 µM
"COc1ncc(-c2c(C)cc(C(=O)O)cc2C)cc1-c1ccc(C(F)(F)F)cc1[C@@H]1CC[C@H]2[C@@H](c3ccnc(C(F)(F)F)c3)CC(=O)N12 [Example 21, 4-{6-methoxy-5-[2-{(3S,7R,7aS)-5-oxo-7-[2-(trifluoromethyl)pyridin-4-yl]hexahydro-1H-pyrrolizin-3-yl}-4-(trifluoromethyl)phenyl]pyridin-3-yl}-3,5-dimethylbenzoic acid]",IC50,[1],2.9 µM
COc1cc(F)c(C(C)C)cc1-c1ccc(C(F)(F)F)cc1CN1C(=O)O[C@H](c2cc(C(F)(F)F)cc(C(F)(F)F)c2)[C@@H]1C [anacetrapib],decrease of LDL-C,[2]; [5],40%
same,increase of HDL-C,[2]; [5],138%
same,increase in mortality,"[2]; patients treated with anacetrapib, DEFINE trial",unlikely
CCC(CC)CC1(C(=O)Nc2ccccc2SC(=O)C(C)C)CCCCC1 [dalcetrapib],clinical benefit (interim data),[3]; terminated early,did not show a clinical benefit
same,safety issues,[3],no safety issues detected
CCOC(=O)N1c2ccc(C(F)(F)F)cc2[C@@H](N(Cc2cc(C(F)(F)F)cc(C(F)(F)F)c2)C(=O)OC)C[C@H]1CC [torcetrapib],incidence of mortality,[4],higher incidence of mortality
